Experimental data published in ChEMBL document CHEMBL5303573, “Mapping human microbiome drug metabolism by gut bacteria and their genes” (Nature, 2019).

Legend:
[1] = The drug is tested on Bacteroides finegoldii strain: DSM17565 for biotransformation. The drug concentrations were measured before and after a 12-h incubation by liquid-chromatography-coupled mass spectrometry (LC–MS); details: 2 µM
[2] = The drug is tested on Dorea formicigenerans strain: ATCC27755 for biotransformation. The drug concentrations were measured before and after a 12-h incubation by liquid-chromatography-coupled mass spectrometry (LC–MS); details: 2 µM
[3] = The drug is tested on Bacteroides sp. WH2 strain: WH2 for biotransformation. The drug concentrations were measured before and after a 12-h incubation by liquid-chromatography-coupled mass spectrometry (LC–MS); details: bacteroides sp. wh2, 12 h, 2 µM
[4] = The drug is tested on Bacteroides fragilis strain: HMW610 for biotransformation. The drug concentrations were measured before and after a 12-h incubation by liquid-chromatography-coupled mass spectrometry (LC–MS); details: 2 µM
[5] = bifidobacterium adolescentis, 12 h, 2 µM
[6] = The drug is tested on Bacteroides ovatus strain: ATCC8483 for biotransformation. The drug concentrations were measured before and after a 12-h incubation by liquid-chromatography-coupled mass spectrometry (LC–MS); details: 2 µM
[7] = bacteroides thetaiotaomicron, 12 h, 2 µM
[8] = parabacteroides distasonis, 12 h, 2 µM
[9] = The drug is tested on Escherichia coli strain: BW25113 for biotransformation. The drug concentrations were measured before and after a 12-h incubation by liquid-chromatography-coupled mass spectrometry (LC–MS); details: 2 µM
[10] = parabacteroides johnsonii, 12 h, 2 µM
[11] = The drug is tested on Edwardsiella tarda strain: ATCC23685 for biotransformation. The drug concentrations were measured before and after a 12-h incubation by liquid-chromatography-coupled mass spectrometry (LC–MS); details: 2 µM
[12] = bacteroides eggerthii, 12 h, 2 µM
[13] = The drug is tested on Eubacterium rectale strain: ATCC33656 for biotransformation. The drug concentrations were measured before and after a 12-h incubation by liquid-chromatography-coupled mass spectrometry (LC–MS); details: agathobacter rectalis, 2 µM
[14] = The drug is tested on Ruminococcus gnavus strain: ATCC29149 for biotransformation. The drug concentrations were measured before and after a 12-h incubation by liquid-chromatography-coupled mass spectrometry (LC–MS); details: mediterraneibacter gnavus, 2 µM
[15] = The drug is tested on Providencia stuartii strain: ATCC25827 for biotransformation. The drug concentrations were measured before and after a 12-h incubation by liquid-chromatography-coupled mass spectrometry (LC–MS); details: 2 µM
[16] = enterocloster bolteae, 12 h, 2 µM
[17] = The drug is tested on Bacteroides dorei strain: DSM17855 for biotransformation. The drug concentrations were measured before and after a 12-h incubation by liquid-chromatography-coupled mass spectrometry (LC–MS); details: phocaeicola dorei, 2 µM
[18] = The drug is tested on Bacteroides xylanisolvens strain: DSM18836 for biotransformation. The drug concentrations were measured before and after a 12-h incubation by liquid-chromatography-coupled mass spectrometry (LC–MS); details: 2 µM
[19] = The drug is tested on Eubacterium ventriosum strain: ATCC27560 for biotransformation. The drug concentrations were measured before and after a 12-h incubation by liquid-chromatography-coupled mass spectrometry (LC–MS); format: ADME; set-up: dose 2 uM, timepoint 0 vs 12 hours; details: 2 µM
[20] = The drug is tested on Eggerthella lenta strain: ATCC25559 for biotransformation. The drug concentrations were measured before and after a 12-h incubation by liquid-chromatography-coupled mass spectrometry (LC–MS); details: 2 µM

SMILES	Bacterial Biotransformation [1]	Bacterial Biotransformation [2]	Bacterial Biotransformation [3]	Bacterial Biotransformation [4]	Bacterial Biotransformation [5]	Bacterial Biotransformation [6]	Bacterial Biotransformation [7]	Bacterial Biotransformation [8]	Bacterial Biotransformation [9]	Bacterial Biotransformation [10]	Bacterial Biotransformation [11]	Bacterial Biotransformation [12]	Bacterial Biotransformation [13]	Bacterial Biotransformation [14]	Bacterial Biotransformation [15]	Bacterial Biotransformation [16]	Bacterial Biotransformation [17]	Bacterial Biotransformation [18]	Bacterial Biotransformation [19]	Bacterial Biotransformation [20]
CC(C)(C)NCC(O)COc1cccc2c1CC(O)C(O)C2 (stereo not drawn) [NADOLOL]	Compound NOT metabolized	Compound NOT metabolized	Compound NOT metabolized	Compound NOT metabolized	Compound NOT metabolized	Compound NOT metabolized	Compound NOT metabolized	–	–	Compound NOT metabolized	Compound NOT metabolized	Compound NOT metabolized	–	Compound NOT metabolized	Compound NOT metabolized	Compound NOT metabolized	–	Compound NOT metabolized	Compound NOT metabolized	–
CC(C)(C)NC[C@H](O)COc1ccccc1C1CCCC1.CC(C)(C)NC[C@H](O)COc1ccccc1C1CCCC1.O=S(=O)(O)O [PENBUTOLOL SULFATE]	Compound NOT metabolized	Compound NOT metabolized	Compound NOT metabolized	Compound NOT metabolized	Compound NOT metabolized	Compound NOT metabolized	Compound NOT metabolized	Compound NOT metabolized	Compound NOT metabolized	–	Compound NOT metabolized	Compound NOT metabolized	Compound NOT metabolized	Compound NOT metabolized	Compound NOT metabolized	Compound NOT metabolized	–	Compound NOT metabolized	Compound NOT metabolized	–
CCc1nc(N)nc(N)c1-c1ccc(Cl)cc1 [PYRIMETHAMINE]	Compound NOT metabolized	Compound NOT metabolized	Compound NOT metabolized	Compound NOT metabolized	Compound NOT metabolized	Compound NOT metabolized	Compound NOT metabolized	Compound NOT metabolized	–	Compound NOT metabolized	Compound NOT metabolized	Compound NOT metabolized	–	Compound NOT metabolized	Compound NOT metabolized	Compound NOT metabolized	Compound NOT metabolized	Compound NOT metabolized	Compound NOT metabolized	Compound NOT metabolized
C=C[C@H]1CN2CC[C@H]1C[C@H]2[C@H](O)c1ccnc2ccc(OC)cc12.C=C[C@H]1CN2CC[C@H]1C[C@H]2[C@H](O)c1ccnc2ccc(OC)cc12.O.O.O=S(=O)(O)O [QUININE SULFATE]	Compound NOT metabolized	Compound NOT metabolized	Compound NOT metabolized	–	Compound NOT metabolized	Compound NOT metabolized	–	Compound NOT metabolized	–	Compound NOT metabolized	Compound NOT metabolized	Compound NOT metabolized	Compound NOT metabolized	Compound NOT metabolized	Compound NOT metabolized	Compound NOT metabolized	–	Compound NOT metabolized	Compound NOT metabolized	–

Continued, values first:

Bacterial Biotransformation [1]	Bacterial Biotransformation [2]	Bacterial Biotransformation [3]	Bacterial Biotransformation [4]	Bacterial Biotransformation [5]	Bacterial Biotransformation [6]	Bacterial Biotransformation [7]	Bacterial Biotransformation [8]	Bacterial Biotransformation [9]	Bacterial Biotransformation [10]	Bacterial Biotransformation [11]	Bacterial Biotransformation [12]	Bacterial Biotransformation [13]	Bacterial Biotransformation [14]	Bacterial Biotransformation [15]	Bacterial Biotransformation [16]	Bacterial Biotransformation [17]	Bacterial Biotransformation [18]	Bacterial Biotransformation [19]	Bacterial Biotransformation [20]	SMILES
Compound metabolized	Compound NOT metabolized	Compound metabolized	Compound metabolized	Compound NOT metabolized	Compound metabolized	Compound NOT metabolized	Compound NOT metabolized	Compound NOT metabolized	Compound NOT metabolized	Compound NOT metabolized	Compound NOT metabolized	Compound NOT metabolized	Compound NOT metabolized	Compound NOT metabolized	Compound NOT metabolized	Compound NOT metabolized	Compound NOT metabolized	–	–	COc1ccc(/C=C/C(=O)Nc2ccccc2C(=O)O)cc1OC
Compound metabolized	Compound NOT metabolized	–	Compound metabolized	Compound NOT metabolized	–	Compound NOT metabolized	Compound metabolized	Compound NOT metabolized	Compound metabolized	Compound NOT metabolized	Compound metabolized	–	Compound metabolized	–	Compound metabolized	Compound metabolized	Compound metabolized	Compound NOT metabolized	–	COc1c2occc2cc2ccc(=O)oc12 [METHOXSALEN]
Compound NOT metabolized	Compound NOT metabolized	–	Compound metabolized	Compound NOT metabolized	Compound NOT metabolized	Compound NOT metabolized	Compound NOT metabolized	–	Compound NOT metabolized	Compound NOT metabolized	Compound NOT metabolized	Compound NOT metabolized	Compound NOT metabolized	Compound NOT metabolized	Compound NOT metabolized	Compound metabolized	Compound metabolized	–	–	O=C(NC(Cc1cc(=O)[nH]c2ccccc12)C(=O)O)c1ccc(Cl)cc1 (stereo not drawn) [REBAMIPIDE]
Compound NOT metabolized	Compound NOT metabolized	Compound NOT metabolized	Compound NOT metabolized	Compound NOT metabolized	Compound NOT metabolized	Compound NOT metabolized	Compound NOT metabolized	Compound NOT metabolized	Compound NOT metabolized	Compound NOT metabolized	–	Compound NOT metabolized	Compound NOT metabolized	Compound NOT metabolized	Compound NOT metabolized	Compound NOT metabolized	–	–	–	CCN(CC)CCNC(=O)c1cc(S(C)(=O)=O)ccc1OC [TIAPRIDE]
Compound NOT metabolized	Compound NOT metabolized	Compound NOT metabolized	Compound NOT metabolized	Compound NOT metabolized	Compound NOT metabolized	Compound NOT metabolized	Compound NOT metabolized	–	Compound NOT metabolized	Compound NOT metabolized	Compound NOT metabolized	–	Compound NOT metabolized	Compound NOT metabolized	Compound NOT metabolized	Compound NOT metabolized	Compound NOT metabolized	Compound NOT metabolized	Compound NOT metabolized	Cc1ccc(/C(=C\CN2CCCC2)c2ccccn2)cc1 [TRIPROLIDINE]
